Data as given in US6506555B1, “Use of HIV protease inhibiting compounds” (Institut National de la Sante et de la Recherche Medicale …, priority 1998, dated 2003).
Like-named read-outs stand apart in the source and are kept apart here.

Columns and labels:
[1] = tested on: antibodies specific for the LCMV nucleoprotein and glycoprotein; assay: Antibody response to LCMV nucleoprotein and glycoprotein (ELISA); type: in vivo, mice; conditions: ELISA after four and eight weeks
Experimental: The antibodies specific for the LCMV nucleoprotein and for the LCMV glycoprotein were evaluated after four and eight weeks by an ELISA test as described in O. Planz, P. Seiler, H. Hengartner and R. M. Zinkernagel, Nature, 382, 629 […].

[2] = tested on: ubiquitin proteasome pathway; assay: Degradation of the proteins with a short lifespan (35S pulse-chase); type: cell-based; conditions: cells cultured overnight with variable concentration
Experimental: For these analyses, the cells were cultured overnight in the presence of a variable concentration of ritonavir, preincubated in a medium free of methionine and cysteine for 1 hour, subjected to labelling with ^35S-methionine and ^35S-cysteine for one hour, washed in PBS and subjected to a chase for one hour. After one hour, TCA (trichloroacetic acid at 10% final) was added to the supernatant and the radioactivity of the supernatant not precipitated with TCA was quantified with a Lumaplate (Topcount Packard) (FIG. 4A).

[3] = biological target: T1, 20S proteasomes isolated from murine B8 fibroblasts (Mus musculus, UniProt O55234+P70195+Q60692); assay: Hydrolysis of fluorogenic substrates by isolated 20S proteasomes; type: biochemical
T1 construct: 20S proteasomes isolated from murine B8 fibroblasts; endogenous in cells; host or cells: murine B8 fibroblasts; 20S proteasome purified from the cells
Experimental: FIGS. 4B, 4C and 4D show the hydrolysis of the fluorogenic substrate (100 μM Suc-LLVY-MCA, 100 μM (Z)-GGL-MCA and 400 μM Bz-VGR-MCA) of the 20S proteasomes isolated from murine B8 fibroblasts, as a function of variable concentrations of ritonavir and of LLnL (N-acetyl-L-leucinyl-L-leucinal-L-norleucinal, known inhibitor of the proteasome). The results are reported for one hour of digestion with the 20S proteasome (500 ng) in a final volume of 100 μl. The values were located in a linear detection domain and are the mean values of triplicates with standard errors of less than 3%.
The hydrolysis of Suc-LLVY-MCA by the 20S murine proteasomes was tested according to the method described in Example 4.2. under identical conditions except for the fact that a different batch of purified proteasomes was used. The hydrolysis of Suc-LLVY-MCA was measured in the presence of increasing concentrations of ritonavir, nelfinavir (Roche), saquinavir (mesylate) and indinavir (active ingredient of Crixivan® marketed by Merck and Sharp and Dohme). The HIV protease inhibitors were dissolved beforehand in ethanol, methanol, DMSO and water respectively, for use in vitro (FIG. 4E).

[4] = tested on: class I molecules; assay: Maturation and surface expression of class I molecules; type: cell-based
[5] = tested on: Hybridoma (MHC-I); assay: IL-2 release by hybridoma FT6.9 cocultured with NOD pancreatic islets; type: cell-based, NOD mice
Experimental: (§1) Ritonavir (0.6 mg per 10 g of body weight per day) or a placebo (phosphate buffer PBS) was administered by the intraperitoneal route to NOD mice. The pancreatic islets were removed and cultured for 24 hours in the presence or in the absence of 2.5 μg/ml of ritonavir. The cells were then cocultured with MHC-1-restricted hybridomas (FT6.9 and FT7.9 for 24 hours). The quantity of IL-2 was assayed in the supernatant. The following tables present the quantities of IL-2 measured by a test of proliferation (cpm×10^−3).

[6] = tested on: Hybridoma ETG.9 (MHC-I); assay: as above; type: cell-based, NOD mice
Experimental: as §1

[7] = tested on: Hybridoma FT7.9 (MHC-I); assay: IL-2 release by hybridoma FT7.9 cocultured with NOD pancreatic islets; type: cell-based, NOD mice
Experimental: as §1

[8] = Experimental allergic encephalitis in mice and transfer of protection; type: in vivo
Experimental: In this experiment, healthy recipient mice not treated with ritonavir received, by the intravenous and/or peritoneal route, cells of the lymph nodes and of the spleen obtained from donor mice treated with ritonavir and having been subjected to the protocol for induction of EAE described above in Example a) and adapted to mice.
The popliteal, inguinal and mesenteric ganglia and the spleen are removed at D10 after injection of MBP, cultured in the presence of 50 μg/ml of MBP. On the third day of culture, the nonadherent cells are recovered, passed over Ficoll and injected into the recipient mice (10×10^6 injected cells).

[9] = tested on: hepatitis C virus; assay: Clinical case: patient doubly infected with HIV and HCV treated with ritonavir; type: in vivo, human
Description: A patient who is a drug addict is monitored for a double infection with HIV and HCV, discovered in 1986 but undoubtedly prior to this date. The progression of the HIV infection is slow, with a viremia established at around 4 Log HIV RNA copies/ml. The level of CD4 T lymphocytes dropped with a first opportunistic lung infection. […] An HIV protease inhibitor, ritonavir, was introduced into the therapy of the patient and followed since then. The HIV viremia became undetectable during the two months which followed the beginning of the treatment before returning to the previous level from the fourth month. The level of CD4 T lymphocytes increased during this period and continued to increase even after the reappearance of the HIV viremia. By contrast, the HCV viremia became negative at the 7th month after the introduction of ritonavir (FIG. 7), and has remained so two years later.

[10] = tested on: M113 cells presenting the MART-1 antigen; assay: Proliferation of M77-84 T lymphocytes stimulated by treated M113 cells
[11] = tested on: HCV
[12] = 100 μM substrate, one hour digestion, 500 ng 20S proteasome
[13] = in vivo PBS, in vitro ritonavir 2.5 μg/ml
[14] = in vivo ritonavir, in vitro PBS
[15] = in vivo ritonavir, in vitro ritonavir
[16] = patients with hepatic cytolysis (cytolysis +)
[17] = patients without hepatic cytolysis (cytolysis −)

CC(C)c1nc(CN(C)C(=O)N[C@H](C(=O)N[C@@H](Cc2ccccc2)C[C@H](O)[C@H](Cc2ccccc2)NC(=O)OCc2cncs2)C(C)C)cs1 [ritonavir]
capacity for synthesizing anti-virus antibodies [1]: does not reduce
degradation of proteins with a short lifespan [2]: inhibits in a dose-dependent manner
hydrolysis of the fluorogenic substrate Suc-LLVY-MCA [3, 12]: potent inhibitor
hydrolysis of the substrate (Z)-GGL-MCA [3, 12]: hardly affected
cleavage of the substrate Bz-VGR-MCA ("trypsin" type activity) ([3]; 400 μM substrate, one hour digestion, 500 ng 20S proteasome): substantially increased
"chimotrypsin-like" activity (hydrolysis of Suc-LLVY-MCA), comparison of four HIV-1 protease inhibitors ([3]; different batch of purified proteasomes, increasing concentrations): inhibits
"chymotrypsin-like" activity of the proteasome ([3]; summary statement): inhibited
"trypsin" activity of the proteasome ([3]; summary statement): increased
expression at the surface of the class I molecules [4]: not significantly blocked
maturation of the class I molecules in the endoplasmic reticulum (resistance to endoglycosidase-H) [4]: not significantly blocked
percentage in brackets (reduction of IL-2 versus PBS/PBS) [5, 13]: 37%
percentage in brackets (reduction of IL-2 versus PBS/PBS) [5, 14]: 47%
percentage in brackets (reduction of IL-2 versus PBS/PBS) [5, 15]: 31%
recognition ex vivo of Langerhan's cells by cytotoxic T clones ([6]; cells isolated from NOD mice treated with ritonavir, statement covers both hybridomas): no longer recognized
quantity of IL-2 measured by a test of proliferation [6, 13]: 40 cpm×10^−3
quantity of IL-2 measured by a test of proliferation [6, 14]: 34 cpm×10^−3
quantity of IL-2 measured by a test of proliferation [6, 15]: 44 cpm×10^−3
percentage in brackets (reduction of IL-2 versus PBS/PBS) [7, 13]: 53%
quantity of IL-2 measured by a test of proliferation [7, 13]: 43 cpm×10^−3
percentage in brackets (reduction of IL-2 versus PBS/PBS) [7, 14]: 24%
quantity of IL-2 measured by a test of proliferation [7, 14]: 70 cpm×10^−3
percentage in brackets (reduction of IL-2 versus PBS/PBS) [7, 15]: 20%
quantity of IL-2 measured by a test of proliferation [7, 15]: 74 cpm×10^−3
symptoms of EAE in recipient mice after transfer of cells from donor mice treated with ritonavir ([8]; 10×10^6 lymph node and spleen cells injected, EAE induction at D30 after the transfer): no symptom of EAE
EAE in mice treated with ritonavir ([8]; mouse, in vivo): Results similar to those described in rats
HCV viremia ([9]; at the 7th month after introduction of ritonavir, remained so two years later): negative
HIV viremia ([9]; during the two months after beginning of treatment, returned to previous level from the fourth month): undetectable
level of CD4 T lymphocytes ([9]; one patient, during treatment): increased
presentation of MART-1 antigen: proliferation of M77-84 T lymphocytes ([10]; M113 cells cultured 24 hours with 0.1-5 μg/ml, proliferation after 48 hours): inhibition
inhibition of proliferation ([10]; antigen presenting cells cultured in sera of HIV-negative volunteers obtained 3 hours after a single oral dose of 500 mg): Up to 70%
anti-HCV antibody titre ([11]; during the therapy): increases only in the patients exhibiting cytolysis
patients in whom the ALAT concentrations increased ([11]; patients coinfected with HCV and HIV): 57%
Ac index (variation of anti-HCV antibody titre, ratio of the optical densities) [11, 16]: 2.19(+/−1.68)
variation of CD4 [11, 16]: 109.4(+/−113) cells /mm^3
variation of CD8 [11, 16]: 203.6(+/−650) cells /mm^3
variation of HCV-VL (viral HCV load) [11, 16]: +0.61 log10 of copies of RNA/ml
variation of HCV-VL (viral HCV load) ([11]; patients with hepatic cytolysis (cytolysis +), listed as RTN): 0.61(+/−0.3) log10 of copies of RNA/ml
Ac index (variation of anti-HCV antibody titre, ratio of the optical densities) [11, 17]: 0.98(+/−0.24)
variation of CD4 [11, 17]: 88.3(+/−170) cells /mm^3
variation of CD8 [11, 17]: 281.8(+/−394) cells /mm^3
variation of HCV-VL (viral HCV load) [11, 17]: +0.22 log10 of copies of RNA/ml
variation of HCV-VL (viral HCV load) ([11]; patients without hepatic cytolysis (cytolysis −), listed as RTN): 0.22(+/−0.35) log10 of copies of RNA/ml
ALAT concentration peak, mean maximum value ([11]; ritonavir group, third month): 418 IU/1
ALAT concentration peak, variation ([11]; ritonavir group, third month): 96-1570 IU/1
